Measured values from patent publication US12084462B2, “Spiro bicyclic inhibitors of menin-MLL interaction” (Janssen Pharmaceutica NV, priority 2016, dated 2024).
Read-outs that look alike come from different tables or passages of the source.

Legend:
MV-4-11 = assay: Proliferation assay (spheroid assay) MV-4-11; type: cell-based, human; details: Homo sapiens, MV4-11, MV-4-11; averaged values; read-out: Spheroid assay MV-4-11 (IC50 (μM))
Procedure: (§1) The anti-proliferative effect of menin/MLL protein/protein interaction inhibitor test compounds was assessed in human leukemia cell lines. The cell lines MV-4-11 and MOLM14 harbor MLL translocations and express the MLL fusion proteins MLL-AF4 and MLL-AF9, respectively, as well as the wildtype protein from the second allele. […] K562 and KG1 were used as a control cell lines containing two MLL wildtype alleles in order to exclude compounds that display general cytotoxic effects.
(§2) MV-4-11 and MOLM14 were cultured in RPMI-1640 (Sigma Aldrich) supplemented with 10% fetal bovine serum (HyClone), 2 mM L-glutamine (Sigma Aldrich) and 50 μg/ml gentamycin (Gibco). K562 were propagated in RPMI-1640 (Sigma Aldrich) supplemented with 20% fetal bovine serum (HyClone), 2 mM L-glutamine (Sigma Aldrich) and 50 μg/ml gentamycin (Gibco). KG1 were cultured in Iscove's MDM (Gibco) supplemented with 20% fetal bovine serum (HyClone), 2 mM L-glutamine (Sigma Aldrich) and 50 μg/ml gentamycin (Gibco).
(§3) In order to assess the anti-proliferative effects, 1,500 MV-4-11, 300 MOLM14, 750 K562 or 1,300 KG1 cells were seeded in 200 μl media per well in 96-well round bottom, ultra-low attachment plates (Costar, catalogue number 7007). Cell seeding numbers were chosen based on growth curves to ensure linear growth throughout the experiment. Test compounds were added at different concentrations and the DMSO content was normalized to 0.3%. Cells were incubated for 8 d at 37° C. and 5% CO2. Spheroid like growth was monitored in real-time by live-cell imaging (IncuCyteZOOM, Essenbio, 4× objective) acquiring one image every four hours for 8 d. Confluence (%) as a measure of spheroid size was determined using an integrated analysis tool.
(§4) In order to determine the cumulative effect of the test compounds over time, the area under the curve (AUC) in a plot of confluence against time was calculated. Confluence at the beginning of the experiment (t=0) was used as baseline for the AUC calculation.
(§5) Absolute IC50 values were calculated according to the following procedure: % Control=(AUC sample/AUC control)*100 AUC control=mean AUC of control values (cells without compound/DMSO as vehicle control)
(§6) A non-linear curve fit was applied using the least squares (ordinary) fit method to the plot of % control versus compound concentration. Based on this, the absolute IC50 value (half maximal inhibitory concentration of the test compound causing an anti-proliferative effect of 50% relative to the vehicle control) was calculated.

MOLM14 = assay: Proliferation assay (spheroid assay) MOLM14; type: cell-based, human; details: Homo sapiens
Procedure: as §1, §2, §3, §4, §5, §6

[1] = MOLM-14, MOLM14, averaged values, read-out: Spheroid assay MOLM14 (IC50 (μM))

| Compound | IC50 (MV-4-11) [µM] | further results |
| --- | --- | --- |
| C[C@@H](C1CCNCC1)N1CC2(CCN(c3ncnc4sc(CC(F)(F)F)cc34)C2)C1 [Compound 146] | 2.4 | – |
| CC(C1CCOCC1)N1CC2(CCN(c3ncnc4sc(CC(F)(F)F)cc34)C2)C1 (stereo not shown) [Compound 145] | 1.7 | IC50 (MOLM14; [1]): 7.3 µM |
| O=C([C@H]1CC2(CC2)CN1)N1CC2(C1)CN(c1ncnc3sc(CC(F)(F)F)cc13)C2 [Compound 109] | 8.1 | – |
| Cc1ccc(CN2CC3(CCN(c4ncnc5sc(CC(F)(F)F)cc45)C3)C2)cc1 [Compound 49] | 2.1 | – |
| CC(C)C[C@H](C1CCOCC1)N1CC2(CCN(c3ncnc4sc(CC(F)(F)F)cc34)C2)C1 [Compound 179] | 1.3 | – |
| Cn1cc2c(n1)CCCC2N1CC2(CCN(c3ncnc4sc(CC(F)(F)F)cc34)C2)C1 (single isomer, unassigned) [Compound 138] | – | IC50 (MOLM14; MOLM-14, 192 h, MOLM14 (MLL-AF9), 8 d, absolute IC50 from AUC of confluence, individual measurements (not averaged), read-out: (2) Spheroid assay MOLM14 (IC50 (μM))): 7 µM |
| CC(Cc1cccc(F)c1)N1CC2(CCN(c3ncnc4sc(CC(F)(F)F)cc34)C2)C1 (stereo not shown) [Compound 183] | 1.3 | – |
| NCCn1cc(CN2CC3(CCN(c4ncnc5sc(CC(F)(F)F)cc45)C3)C2)cn1 [Compound 77] | 12.1 | – |
| COc1ccccc1CC(C)N1CC2(CCN(c3ncnc4sc(CC(F)(F)F)cc34)C2)C1 (stereo not shown) [Compound 171] | 3.1 | – |
| CC(C)[C@@H](C1CCOCC1)N1CC2(CCN(c3ncnc4sc(CC(F)(F)F)cc34)C2)C1 [Compound 162] | 3.1 | – |
| Cc1nn(C)cc1[C@@H](C(C)C)N1CC2(CCN(c3ncnc4sc(CC(F)(F)F)cc34)C2)C1 [Compound 166] | 2.4 | – |
| Cc1ccccc1CN1CC2(CCN(c3ncnc4sc(CC(F)(F)F)cc34)C2)C1 [Compound 45] | 3.4 | – |
| C[C@H](C1CNC1)N1CC2(CCN(c3ncnc4sc(CC(F)(F)F)cc34)C2)C1 [Compound 150] | 2 | – |
| CO[C@@H]1CN[C@H](C(=O)N2CC3(C2)CN(c2ncnc4sc(CC(F)(F)F)cc24)C3)C1 [Compound 110] | 4 | – |
| CC(C)CN1CCC2(C1)CN(c1ncnc3sc(CC(F)(F)F)cc13)C2 [Compound 58] | 2.7 | – |
| Cc1c(C(C(C)C)N2CC3(CCN(c4ncnc5sc(CC(F)(F)F)cc45)C3)C2)cnn1C (stereo not shown) [Compound 172] | 2.9 | – |
| CC(C)C(c1cnn(C)c1)N1CC[C@]2(CCN(c3ncnc4sc(CC(F)(F)F)cc34)C2)C1 (stereo partly shown) [Compound 186] | 1.3 | – |

| Compound | IC50 (MV-4-11) [µM] | further results |
| --- | --- | --- |
| CC(C)[C@@H](C1CCNCC1)N1CC2(CCN(c3ncnc4sc(CC(F)(F)F)cc34)C2)C1 [Compound 169] | 3.5 | – |
| CN1CC2(CC2)C[C@H]1C(=O)N1CC2(C1)CN(c1ncnc3sc(CC(F)(F)F)cc13)C2 [Compound 108] | > 15 | – |
| CC(C)C(C1CCOCC1)N1CC2(CCN(c3ncnc4sc(CC(F)(F)F)cc34)C2)C1 (stereo not shown) [Compound 156] | 0.79 | – |
| FC(F)(F)Cc1cc2c(N3CCC4(CN(CCc5ccccc5)C4)C3)ncnc2s1 [Compound 69] | 1.2 | – |
| FC(F)(F)Cc1cc2c(N3CC[C@@]4(CCN(CC5CCOCC5)C4)C3)ncnc2s1 [Compound 185] | 1.3 | – |
| FC(F)(F)Cc1cc2c(N3CCC4(CN(CCC5CCOCC5)C4)C3)ncnc2s1 [Compound 67] | 4.9 | – |
| CO[C@H]1CN[C@H](C(=O)N2CC3(C2)CN(c2ncnc4sc(CC(F)(F)F)cc24)C3)C1 [Compound 111] | 9.3 | – |
| COCCn1cc(C(C(C)C)N2CC3(CCN(c4ncnc5sc(CC(F)(F)F)cc45)C3)C2)cn1 (stereo not shown) [Compound 71] | 1.1 | – |
| CC(C)C[C@@H](C1CCOCC1)N1CC2(CCN(c3ncnc4sc(CC(F)(F)F)cc34)C2)C1 [Compound 180] | 1.9 | – |
| Fc1cccc(CN2CC3(CCN(c4ncnc5sc(CC(F)(F)F)cc45)C3)C2)c1 [Compound 56] | 4.9 | – |
| Fc1ccccc1CN1CC2(CCN(c3ncnc4sc(CC(F)(F)F)cc34)C2)C1 [Compound 54] | 3.7 | – |
| Cc1nn(C)cc1C(C(C)C)N1CC2(CCN(c3ncnc4sc(CC(F)(F)F)cc34)C2)C1 (stereo not shown) [Compound 161] | 4.2 | – |
| CC(C)C(C1CCNCC1)N1CC2(CCN(c3ncnc4sc(CC(F)(F)F)cc34)C2)C1 (stereo not shown) [Compound 148] | 0.33 | – |
| C[C@H](C1CCNCC1)N1CC2(CCN(c3ncnc4sc(CC(F)(F)F)cc34)C2)C1 [Compound 147] | 8.2 | – |
| Cc1cccc(CN2CC3(CCN(c4ncnc5sc(CC(F)(F)F)cc45)C3)C2)c1 [Compound 46] | 4.1 | – |
| CC(Cc1cc(F)cc(F)c1)N1CC2(CCN(c3ncnc4sc(CC(F)(F)F)cc34)C2)C1 (stereo not shown) [Compound 170] | 4.3 | – |
| Cc1c([C@@H](C(C)C)N2CC3(CCN(c4ncnc5sc(CC(F)(F)F)cc45)C3)C2)cnn1C [Compound 173] | 3.2 | – |

More lines, main results first:

| IC50 (MV-4-11) [µM] | Compound | further results |
| --- | --- | --- |
| 1.5 | CC(C)[C@H](c1cnn(C)c1)N1CC[C@]2(CCN(c3ncnc4sc(CC(F)(F)F)cc34)C2)C1 (single isomer, unassigned) [Compound 188] | – |
| 0.75 | CC(Cc1ccc(O)cc1)N1CC2(CCN(c3ncnc4sc(CC(F)(F)F)cc34)C2)C1 (stereo not shown) [Compound 323] | – |
| 1.7 | CC(Cc1ccccc1F)N1CC2(CCN(c3ncnc4sc(CC(F)(F)F)cc34)C2)C1 (stereo not shown) [Compound 322] | – |
| 0.32 | CCN1CC(C(C(C)C)N2CC3(CCN(c4ncnc5sc(CC(F)(F)F)cc45)C3)C2)C1 (stereo not shown) [Compound 303] | IC50 (MOLM14; [1]): 1.02 µM |
| 2.4 | FC(F)(F)Cc1cc2c(N3CCC4(CN(CC5CCNCC5)C4)C3)ncnc2s1 [Compound 311] | – |
| 1.3 | CCC(C1CNC1)N1CC2(CCN(c3ncnc4sc(CC(F)(F)F)cc34)C2)C1 (stereo not shown) [Compound 259] | – |
| 1.37 | COc1cccc(CC(C)N2CC3(CCN(c4ncnc5sc(CC(F)(F)F)cc45)C3)C2)c1 (stereo not shown) [Compound 320] | – |
| 1.1 | COc1ccc(CC(C)N2CC3(CCN(c4ncnc5sc(CC(F)(F)F)cc45)C3)C2)cc1 (stereo not shown) [Compound 321] | – |
| > 15 | Cn1cc([C@H](C2CCNCC2)N2CC3(CCN(c4ncnc5sc(CC(F)(F)F)cc45)C3)C2)cn1 [Compound 202] | – |
| 4.89 | FC(F)(F)Cc1cc2c(N3CC[C@@]4(CCN(CCc5ccccc5)C4)C3)ncnc2s1 (single isomer, unassigned) [Compound 296] | – |
| 7.2 | CC(C)[C@@H](c1cnn(C)c1)N1CC2(CCN(c3ncnc4sc(CC(F)(F)F)cc34)C2)C1 [Compound 203] | – |
| 1.09 | Cc1ccc(CC(C2CNC2)N2CC3(CCN(c4ncnc5sc(CC(F)(F)F)cc45)C3)C2)cc1 (stereo not shown) [Compound 318] | – |
| 1.4 | FC(F)(F)Cc1cc2c(N3CC[C@]4(CCN(CC5CCOCC5)C4)C3)ncnc2s1 [Compound 187] | – |
| 0.73 | CC(Cc1ccc(C#N)cc1)N1CC2(CCN(c3ncnc4sc(CC(F)(F)F)cc34)C2)C1 (stereo not shown) [Compound 314] | – |
| 3.18 | Cn1cc(CN2CC[C@]3(CCN(c4ncnc5sc(CC(F)(F)F)cc45)C3)C2)cn1 (single isomer, unassigned) [Compound 299] | – |
| 1.9 | CC(C)C[C@@H](C1CNC1)N1CC2(CCN(c3ncnc4sc(CC(F)(F)F)cc34)C2)C1 [Compound 213] | – |
| 4.23 | Fc1ccc(CCN2CC[C@@]3(CCN(c4ncnc5sc(CC(F)(F)F)cc45)C3)C2)cc1 (single isomer, unassigned) [Compound 298] | – |
| 1.2 | CC[C@@H](C)[C@@H](c1cnn(C)c1)N1CC2(CCN(c3ncnc4sc(CC(F)(F)F)cc34)C2)C1 (single isomer, unassigned) [Compound 237] | – |
| 1.9 | Cc1ccc(CC(C)N2CC3(CCN(c4ncnc5sc(CC(F)(F)F)cc45)C3)C2)cc1 (stereo not shown) [Compound 324] | – |
| 3.6 | CC(C)CC(C1CCC2(CCCC2)OC1)N1CC2(CCN(c3ncnc4sc(CC(F)(F)F)cc34)C2)C1 (single isomer, unassigned) [Compound 313] | – |
| 0.71 | CC[C@@H](C)[C@H](c1cnn(C)c1)N1CC2(CCN(c3ncnc4sc(CC(F)(F)F)cc34)C2)C1 (single isomer, unassigned) [Compound 235] | – |
| 0.2 | CC(C)C(C1CNC1)N1CC2(CCN(c3ncnc4sc(CC(F)(F)F)cc34)C2)C1 (stereo not shown) [Compound 222] | – |
| 6.1 | CC(c1cn[nH]c1)N1CC2(CCN(c3ncnc4sc(CC(F)(F)F)cc34)C2)C1 (stereo not shown) [Compound 223] | – |
| 1.83 | CC(C)CCN1CC[C@]2(CCN(c3ncnc4sc(CC(F)(F)F)cc34)C2)C1 (single isomer, unassigned) [Compound 294] | – |
| 1.67 | CC(C)CCN1CC[C@@]2(CCN(c3ncnc4sc(CC(F)(F)F)cc34)C2)C1 (single isomer, unassigned) [Compound 293] | – |
